In patent EP4496786B1, “CRYSTALLINE FORM OF 2-ACRYLAMIDO-2-METHYLPROPANESULPHONIC ACID POTASSIUM SALT” (SNF Group, priority 2023, dated 2024):

Legend:
Assay type in all cases: physicochemical
[1] = Storage stability of ATBS / ATBS.K stored in solid form: homopolymer by steric exclusion chromatography; conditions: newly prepared solution
Procedure: In parallel, the stability of the different ATBS (acid AH or potassium salt AK2a) in solid form was also assessed over the same period of time.
In this case, every three months, 500 g of a solution of ATBS.K was freshly prepared according to the preparation process described in example 10a or 11 using the stored ATBS products of AH, AK2a and CE-AK2c to 2e.
Stability of the solid products was also assessed by monitoring the amount of homopolymers of ATBS.K present after that time.
The solutions were analysed by liquid-phase steric exclusion chromatography using an Agilent 1260 chromatograph equipped with Aquagel-OH 20, 30, 40 and 50 columns allowing analysis of anionic polymers up to 600,000 g/mol PEG equivalent.
The solutions of ATBS.K were diluted to 2000 ppm (by weight in water) before being injected. The UV signal at 250 nm at the column outlet was integrated for the polymer peaks and are detailed in tables 4 and 5 below. The larger the signal area, the more polymer is present, and therefore the lower the stability of the product over time. Table 4: Stability of ATBS and ATBS potassium salt stored in solutions

[2] = Particle-size distribution by laser diffraction (Cilas 1190)
Procedure: ATBS AH and crystals of ATBS.K AK2a are analysed by laser diffraction to determine their particle-size distribution.
The laser diffraction equipment used is a Cilas 1190.

[3] = Minimum ignition energy (MIE), standard NF EN 13821, vertical Hartmann tube; conditions: dispersed solid mass 0,5 g
From the text: The minimum ignition energy represents the minimum energy that must be supplied to a product (chemical compound) to cause it to ignite. The energy may be electrical or thermal. The minimum ignition energy is an essential piece of information when considering the risk of explosion during product handling (transfer, storage, reaction, shaping, etc.). In the case of solids, this energy is the minimum energy of an electric spark likely to ignite a cloud of dust. The higher the value of the minimum ignition energy, the less risk the solid presents when used, handled or stored. The minimum ignition energy is measured in accordance with standard NF EN 13821. The explosimeter is a vertical Hartmann tube. The dust dispersion system is of the mushroom type. Total induction is less than 25 microhenry. Discharge voltage is between 5 kV and 15 kV. The electrodes are made of brass and spaced apart by a minimum distance of 6 mm.

SMILES | UV signal at 250 nm integrated for the polymer peaks ([1]; T0) | UV signal at 250 nm integrated for the polymer peaks ([1]; T0 + 3 months, potassium salt) | 90% of the particles are smaller than [2] | d50 value [2] | UV signal at 250 nm integrated for the polymer peaks ([1]; T0 + 6 months) | UV signal at 250 nm integrated for the polymer peaks ([1]; T0 + 9 months) | UV signal at 250 nm integrated for the polymer peaks ([1]; T0 + 12 months) | other results
C=CC(=O)NC(C)(C)CS(=O)(=O)[O-].[K+] [ATBS.K CE-AK2d, 2-acrylamido-2-methylpropanesulphonic acid potassium salt] | 0 mV.s | 254 mV.s | – | – | – | – | – | –
C=CC(=O)NC(C)(C)CS(=O)(=O)[O-].[K+] [ATBS.K CE-AK2e, 2-acrylamido-2-methylpropanesulphonic acid potassium salt] | 0 mV.s | 251 mV.s | – | – | – | – | – | –
C=CC(=O)NC(C)(C)CS(=O)(=O)O [ATBS AH, 2-acrylamido-2-methylpropanesulphonic acid] | 0 mV.s | – | 100 µm | approximately 40 µm | 7702 mV.s | 10503 mV.s | 256300 mV.s | Flame ([3]; Energy 300 mJ): Average; Pressure ([3]; Energy 300 mJ): Average; Flame ([3]; Energy 500 mJ): Average; Pressure ([3]; Energy 500 mJ): Average; Flame ([3]; Energy 1000 mJ): Small; Pressure ([3]; Energy 1000 mJ): Low; UV signal at 250 nm integrated for the polymer peaks ([1]; T0 + 3 months): 250 mV.s
C=CC(=O)NC(C)(C)CS(=O)(=O)[O-].[K+] [ATBS.K CE-AK2c, 2-acrylamido-2-methylpropanesulphonic acid potassium salt] | 0 mV.s | 261 mV.s | – | – | – | – | – | –
C=CC(=O)NC(C)(C)CS(=O)(=O)[O-].[K+] [ATBS.K AK2a, 2-acrylamido-2-methylpropanesulphonic acid potassium salt] | 0 mV.s | 200 mV.s | approximately 1500 µm | approximately 600 µm | 6532 mV.s | 9532 mV.s | 25631 mV.s | particles smaller than 325 µm [2]: less than 10%; Flame ([3]; High energy): Small; Pressure ([3]; High energy): Low
